Our source for the IC50 values is patent publication US8952162B2, “Triazolopyridines as phosphodiesterase inhibitors for treatment of dermal diseases” (Leo Pharma A/S, priority 2008, dated 2015).

Molecules are shown by their SMILES. A value given as a limit tells only on which side of the number the result lay.

Chain of Human recombinant PDE4 (Genbank accession no NM—006203) (Q08499 1-673 isoform Q08499-2): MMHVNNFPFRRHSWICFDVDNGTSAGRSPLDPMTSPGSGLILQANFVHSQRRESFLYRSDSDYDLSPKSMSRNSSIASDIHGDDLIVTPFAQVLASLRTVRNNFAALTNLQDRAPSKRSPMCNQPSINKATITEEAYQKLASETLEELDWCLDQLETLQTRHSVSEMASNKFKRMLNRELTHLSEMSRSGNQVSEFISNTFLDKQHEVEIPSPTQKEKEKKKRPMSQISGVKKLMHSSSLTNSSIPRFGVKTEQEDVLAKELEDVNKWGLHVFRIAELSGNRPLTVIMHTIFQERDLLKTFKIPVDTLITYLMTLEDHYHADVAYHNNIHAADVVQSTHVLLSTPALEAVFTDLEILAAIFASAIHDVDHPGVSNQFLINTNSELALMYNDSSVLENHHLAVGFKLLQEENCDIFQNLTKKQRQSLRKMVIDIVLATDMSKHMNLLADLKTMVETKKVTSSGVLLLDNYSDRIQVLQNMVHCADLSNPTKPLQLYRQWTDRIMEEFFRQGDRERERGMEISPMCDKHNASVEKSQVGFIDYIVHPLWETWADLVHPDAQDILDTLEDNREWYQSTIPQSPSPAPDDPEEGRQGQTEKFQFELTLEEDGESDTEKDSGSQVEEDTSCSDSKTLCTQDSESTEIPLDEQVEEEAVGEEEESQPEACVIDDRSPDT

The target in one assay is Human recombinant PDE4 (Genbank accession no NM—006203) (Homo sapiens, UniProt Q08499). The experiment in a line: PDE4 assay (SPA, cAMP cleavage). Particulars: Example 52; human recombinant PDE4, 1 hour incubation, cAMP 1×10^-5M, test compound up to 10 μM; read-out: PDE4 IC50 range. Type of assay: biochemical. The procedure:
At the end of the incubation, the cleavage of the substrate was evaluated by the binding of the AMP product to SPA beads, which generate chemoluminescence when bound to the radioactive tracer. The AMP product inhibited the binding of the radioactive tracer to the beads, and the luminescent signal was competed.
One may read the IC50 as the point on the concentration scale where inhibition reaches its midpoint. For the molecule `COc1ccc(-c2ccc(OC)c3nc(C4CC4)nn23)cc1` [Compound 103, 2-Cyclopropyl-8-methoxy-5-(4-methoxy-phenyl)-[1,2,4]triazolo[1,5-a]pyridine], the 50% inhibitory concentration (IC50) is < 500 nM.

For the molecule `COc1ccc(-c2ccc(C(F)(F)F)cc2)n2nc(C3CC3)nc12` [Compound 104, 2-Cyclopropyl-8-methoxy-5-(4-trifluoromethyl-phenyl)-[1,2,4]triazolo[1,5-a]pyridine], the IC50 was in the range of 500 to 1000 nM.

`COc1ccc(-c2ccc(OC)c3nc(C4CC4)nn23)cc1OC` [Compound 105, 2-Cyclopropyl-5-(3,4-dimethoxy-phenyl)-8-methoxy-[1,2,4]triazolo[1,5-a]pyridine]: the half-inhibitory concentration (IC50) is < 500 nM.

Consider `COc1ccc(-c2cccs2)n2nc(C3CC3)nc12` [Compound 106, 2-Cyclopropyl-8-methoxy-5-thiophen-2-yl-[1,2,4]triazolo[1,5-a]pyridine], for which the IC50 was < 500 nM.

Take `COc1ccc(-c2cccc(NC(C)=O)c2)n2nc(C3CC3)nc12` [Compound 107, N-[3-(2-Cyclopropyl-8-methoxy-[1,2,4]triazolo[1,5-a]pyridin-5-yl)-phenyl]-acetamide]: the IC50 was > 1000 nM.

For `COc1ccc(-c2cccc(OC(F)(F)F)c2)n2nc(C3CC3)nc12` [Compound 108, 2-Cyclopropyl-8-methoxy-5-(3-trifluoromethoxy-phenyl)-[1,2,4]triazolo[1,5-a]pyridine], the half-maximal inhibitory concentration (IC50) is < 500 nM.

On to `COc1cccc(-c2ccc(OC)c3nc(C4CC4)nn23)c1` [Compound 109, 2-Cyclopropyl-8-methoxy-5-(3-methoxy-phenyl)-[1,2,4]triazolo[1,5-a]pyridine], for which the IC50 was < 500 nM.

`COc1ccc(-c2ccc(C(C)=O)s2)n2nc(C3CC3)nc12` [Compound 110, 1-[5-(2-Cyclopropyl-8-methoxy-[1,2,4]triazolo[1,5-a]pyridin-5-yl)-thiophen-2-yl]-ethanone]: the IC50 was < 500 nM.

For the molecule `COc1ccc(-c2cncnc2)n2nc(C3CC3)nc12` [Compound 111, 2-Cyclopropyl-8-methoxy-5-pyrimidin-5-yl-[1,2,4]triazolo[1,5-a]pyridine], the concentration for half-maximal inhibition (IC50) was 500 to 1000 nM.

As to `COc1ccc(-c2cccc(S(C)(=O)=O)c2)n2nc(C3CC3)nc12` [Compound 112, 2-Cyclopropyl-5-(3-methanesulfonyl-phenyl)-8-methoxy-[1,2,4]triazolo[1,5-a]pyridine], the IC50 is 500 to 1000 nM.

For `COc1ccc(-c2cccc(NS(C)(=O)=O)c2)n2nc(C3CC3)nc12` [Compound 113, N-[3-(2-Cyclopropyl-8-methoxy-[1,2,4]triazolo[1,5-a]pyridin-5-yl)-phenyl]-methanesulfonamide], the 50% inhibitory concentration (IC50) was 500 to 1000 nM.

`CNC(=O)c1cccc(-c2ccc(OC)c3nc(C4CC4)nn23)c1` [Compound 114, 3-(2-Cyclopropyl-8-methoxy-[1,2,4]triazolo[1,5-a]pyridin-5-yl)-N-methyl-benzamide]: the IC50 was > 1000 nM.

Regarding `COc1ccc(-c2ccc(NC(C)=O)cc2)n2nc(C3CC3)nc12` [Compound 116, N-[4-(2-Cyclopropyl-8-methoxy-[1,2,4]triazolo[1,5-a]pyridin-5-yl)-phenyl]-acetamide], the IC50 is > 1000 nM.

`COc1ccc(-c2cccnc2)n2nc(C3CC3)nc12` [Compound 118, 2-Cyclopropyl-8-methoxy-5-pyridin-3-yl-[1,2,4]triazolo[1,5-a]pyridine]: the IC50 is < 500 nM.

On to `COc1ccc(-c2ccc(S(C)(=O)=O)cc2)n2nc(C3CC3)nc12` [Compound 120, 2-Cyclopropyl-5-(4-methanesulfonyl-phenyl)-8-methoxy-[1,2,4]triazolo[1,5-a]pyridine], for which the half-maximal inhibitory concentration (IC50) was > 1000 nM.

As for `COc1ccc(-c2ccccc2F)n2nc(C3CC3)nc12` [Compound 121, 2-Cyclopropyl-5-(2-fluoro-phenyl)-8-methoxy-[1,2,4]triazolo[1,5-a]pyridine], the IC50 fell in the range of 500 to 1000 nM.

For `COCCOc1ccc(-c2ccc(OC)c3nc(C4CC4)nn23)cc1` [Compound 122, 2-Cyclopropyl-8-methoxy-5-[4-(2-methoxy-ethoxy)-phenyl]-[1,2,4]triazolo[1,5-a]pyridine], the IC50 is > 1000 nM.

Turning to `COc1ccc(-c2ccc(C(N)=O)cc2)n2nc(C3CC3)nc12` [Compound 123, 4-(2-Cyclopropyl-8-methoxy-[1,2,4]triazolo[1,5-a]pyridin-5-yl)-benzamide], the half-inhibitory concentration (IC50) was < 500 nM.

On to `CCCCOc1cccc(-c2ccc(OC)c3nc(C4CC4)nn23)c1` [Compound 124, 5-(3-Butoxy-phenyl)-2-cyclopropyl-8-methoxy-[1,2,4]triazolo[1,5-a]pyridine], for which the IC50 was < 500 nM.

As to `COc1ccc(-c2cccc(F)c2)n2nc(C3CC3)nc12` [Compound 125, 2-Cyclopropyl-5-(3-fluoro-phenyl)-8-methoxy-[1,2,4]triazolo[1,5-a]pyridine], the concentration for half-maximal inhibition (IC50) is < 500 nM.

For the molecule `COc1ccc(-c2ccncc2)n2nc(C3CC3)nc12` [Compound 126, 2-Cyclopropyl-8-methoxy-5-pyridin-4-yl-[1,2,4]triazolo[1,5-a]pyridine], the IC50 is < 500 nM.

On to `COc1ccc(-c2ccc(Cl)cc2Cl)n2nc(C3CC3)nc12` [Compound 127, 2-Cyclopropyl-5-(2,4-dichloro-phenyl)-8-methoxy-[1,2,4]triazolo[1,5-a]pyridine], for which the IC50 is 500 to 1000 nM.

As for `COc1ccc(-c2ccc(S(=O)(=O)N3CCOCC3)cc2)n2nc(C3CC3)nc12` [Compound 128, 2-Cyclopropyl-8-methoxy-5-[4-(morpholine-4-sulfonyl)-phenyl]-[1,2,4]triazolo[1,5-a]pyridine], the half-maximal inhibitory concentration (IC50) is > 1000 nM.

For `COc1ccc(-c2ccc(CNC(C)=O)cc2)n2nc(C3CC3)nc12` [Compound 129, N-[4-(2-Cyclopropyl-8-methoxy-[1,2,4]triazolo[1,5-a]pyridin-5-yl)-benzyl]-acetamide], the 50% inhibitory concentration (IC50) is > 1000 nM.

In the case of `COc1ccc(-c2ccc(CNS(C)(=O)=O)cc2)n2nc(C3CC3)nc12` [Compound 130, N-[4-(2-Cyclopropyl-8-methoxy-[1,2,4]triazolo[1,5-a]pyridin-5-yl)-benzyl]-methanesulfonamide], the IC50 is > 1000 nM.

Consider `COc1ccc(-c2ccc(F)cc2)n2nc(C3CC3)nc12` [Compound 131, 2-Cyclopropyl-5-(4-fluoro-phenyl)-8-methoxy-[1,2,4]triazolo[1,5-a]pyridine], for which the half-inhibitory concentration (IC50) is < 500 nM.

In the case of `COc1ccc(-c2ccc(C#N)cc2)n2nc(C3CC3)nc12` [Compound 132, 4-(2-Cyclopropyl-8-methoxy-[1,2,4]triazolo[1,5-a]pyridin-5-yl)-benzonitrile], the IC50 is < 500 nM.

Turning to `COC(=O)CCc1ccc(-c2ccc(OC)c3nc(C4CC4)nn23)cc1` [Compound 133, 3-[4-(2-Cyclopropyl-8-methoxy-[1,2,4]triazolo[1,5-a]pyridin-5-yl)-phenyl]-propionic acid methyl ester], the half-inhibitory concentration (IC50) fell in the range of 500 to 1000 nM.

As for `COc1ccc(-c2ccc(S(=O)(=O)NCCO)cc2)n2nc(C3CC3)nc12` [Compound 134, 4-(2-Cyclopropyl-8-methoxy-[1,2,4]triazolo[1,5-a]pyridin-5-yl)-N-(2-hydroxy-ethyl)-benzenesulfonamide], the IC50 is > 1000 nM.

As for `COc1ccc(N2CCCCC2)n2nc(C3CC3)nc12` [Compound 143, 2-Cyclopropyl-8-methoxy-5-piperidin-1-yl-[1,2,4]triazolo[1,5-a]pyridine], the concentration for half-maximal inhibition (IC50) was < 500 nM.

The same assay, now with this note: Example 53; PDE4 assay as in example 52; read-out: PDE4 IC50 range.
In the case of `CC(=O)c1cccc(-c2ccc(O)c3nc(C4CC4)nn23)c1` [Compound 144, 1-[3-(2-Cyclopropyl-8-hydroxy-[1,2,4]triazolo[1,5-a]pyridin-5-yl)-phenyl]-ethanone], the IC50 was < 500 nM.

Turning to `COc1ccc(-c2cc(C#N)ccn2)n2nc(C3CC3)nc12` [Compound 145, 2-(2-Cyclopropyl-8-methoxy-[1,2,4]triazolo[1,5-a]pyridin-5-yl)-isonicotinonitrile], the 50% inhibitory concentration (IC50) is 500 to 1000 nM.

`CCOC(=O)C1(c2nc3c(OC)ccc(-c4ccc(C#N)cc4)n3n2)CC1` [Compound 146, 1-[5-(4-Cyano-phenyl)-8-methoxy-[1,2,4]triazolo[1,5-a]pyridin-2-yl]-cyclopropanecarboxylic acid ethyl ester]: the IC50 is 500 to 1000 nM.

On to `COc1ccc(-c2ccc(C#N)cc2)n2nc(C3(C(=O)O)CC3)nc12` [Compound 147, 1-[5-(4-Cyano-phenyl)-8-methoxy-[1,2,4]triazolo[1,5-a]pyridin-2-yl]-cyclopropanecarboxylic acid], for which the IC50 was > 1000 nM.

Consider `COc1ccc(-c2ccc(C#N)cc2)n2nc(C3(C(N)=O)CC3)nc12` [Compound 148, 1-[5-(4-Cyano-phenyl)-8-methoxy-[1,2,4]triazolo[1,5-a]pyridin-2-yl]-cyclopropanecarboxylic acid amide], for which the IC50 was < 500 nM.

As for `COc1ccc(-c2cncc(C#N)c2)n2nc(C3(C(=O)NC(C)C)CC3)nc12` [Compound 149, 1-[5-(5-Cyano-pyridin-3-yl)-8-methoxy-[1,2,4]triazolo[1,5-a]pyridin-2-yl]-cyclopropanecarboxylic acid isopropylamide], the half-maximal inhibitory concentration (IC50) was < 500 nM.

Turning to `COc1ccc(-c2cccc(C#N)c2)n2nc(C3(COC(=O)N4CCCC4)CC3)nc12` [Compound 151, Pyrrolidine-1-carboxylic acid 1-[5-(3-cyano-phenyl)-8-methoxy-[1,2,4]triazolo[1,5-a]pyridin-2-yl]-cyclopropylmethyl ester], the IC50 was < 500 nM.

In the case of `COc1ccc(-c2cccc(C#N)c2)n2nc(C3(COC(=O)NC(C)C)CC3)nc12` [Compound 152, Isopropyl-carbamic acid 1-[5-(3-cyano-phenyl)-8-methoxy-[1,2,4]triazolo[1,5-a]pyridin-2-yl]-cyclopropylmethyl ester], the IC50 is < 500 nM.

On to `COc1ccc(-c2cccc(C#N)c2)n2nc(C3(COCc4ccccc4)CC3)nc12` [Compound 153, 3-[2-(1-Benzyloxymethyl-cyclopropyl)-8-methoxy-[1,2,4]-triazolo[1,5-a]pyridin-5-yl]-benzonitrile], for which the IC50 was < 500 nM.
